From publication PMC3152580 (Journal of the American Chemical Society, 2011)

Target: E. coli Alkaline Phosphatase (AP) (Escherichia coli, UniProt P00634)
Type: biochemical
Conditions: pH 8

E. coli Alkaline Phosphatase (AP), sequence (P00634 22-471): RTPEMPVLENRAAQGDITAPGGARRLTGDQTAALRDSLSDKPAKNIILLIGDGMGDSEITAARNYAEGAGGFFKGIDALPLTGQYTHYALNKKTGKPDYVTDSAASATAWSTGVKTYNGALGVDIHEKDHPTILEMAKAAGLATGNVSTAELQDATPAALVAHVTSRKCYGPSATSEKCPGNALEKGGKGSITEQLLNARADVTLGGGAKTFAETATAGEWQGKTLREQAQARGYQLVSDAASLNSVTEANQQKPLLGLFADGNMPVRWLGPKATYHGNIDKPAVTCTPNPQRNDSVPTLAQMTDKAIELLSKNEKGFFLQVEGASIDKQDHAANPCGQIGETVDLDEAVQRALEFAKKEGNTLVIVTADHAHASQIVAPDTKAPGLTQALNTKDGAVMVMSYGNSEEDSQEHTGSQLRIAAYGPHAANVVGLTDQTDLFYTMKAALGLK

With O=S(=O)(O)O [sulfate] the “differential binding energy between Pi and sulfate binding” value was “at least 8.5 kcal/mol” and the “inhibition of AP by sulfate” value was “No significant inhibition”.
